Test results published in ChEMBL document CHEMBL1201862, “PubChem BioAssay data set” (2004).
“And” between values parts separate entries of the source, which are not always exact repeats. Equal values may be shown once.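 96-well plates; 48 h exposure; 5 concentrations. Endpoints by linear interpolation between flanking doses. Not reached: highest tested concentration assigned. GI50: concentration for 50% inhibition of growth.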 The source made the active and inactive calls. No stated cut-off is given here; in the data, active = GI50 up to about 1.1 µM and inactive = higher.

Experiments:
Assay in all cases: inhibition of tumour cell growth, NCI panel, 48 h
SF-295 = system: SF-295
COLO 205 = system: COLO 205
RXF 393 = system: RXF 393
SK-MEL-28 = system: SK-MEL-28
NCI-H522 = system: NCI-H522
HCT-15 = system: HCT-15
SF-539 = system: SF-539
HOP-92 = system: HOP-92
HL-60 = system: HL-60
HCC 2998 = system: HCC 2998
U-251 = system: U-251
SF-268 = system: SF-268
SNB-19 = system: SNB-19
NCI-H460 = system: NCI-H460
CCRF-CEM = system: CCRF-CEM
MDA-MB-231 = system: MDA-MB-231
PC-3 = system: PC-3
NCI/ADR-RES = system: NCI/ADR-RES
MCF7 = system: MCF7
Hs-578T = system: Hs-578T

| Compound | GI50 (SF-295) | GI50 (COLO 205) | GI50 (RXF 393) | GI50 (SK-MEL-28) | GI50 (NCI-H522) | GI50 (HCT-15) | GI50 (SF-539) | GI50 (HOP-92) | GI50 (HL-60) | GI50 (HCC 2998) | GI50 (U-251) | GI50 (SF-268) | GI50 (SNB-19) | GI50 (NCI-H460) | GI50 (CCRF-CEM) | GI50 (MDA-MB-231) | GI50 (PC-3) | GI50 (NCI/ADR-RES) | GI50 (MCF7) | GI50 (Hs-578T) |
| --- | --- | --- | --- | --- | --- | --- | --- | --- | --- | --- | --- | --- | --- | --- | --- | --- | --- | --- | --- | --- |
| CCC(C)C(N)C(=O)NC(CC(N)=O)C(=O)NC(CC(C)C)C(=O)NC(CCCCN)C(=O)NC(C)C(=O)NC(CC(C)C)C(=O)NC(C)C(=O)NC(C)C(=O)NC(CC(C)C)C(=O)NC(C)C(=O)NC(CCCCN)C(=O)NC(CCCCN)C(=O)NC(C(=O)NC(CC(C)C)C(N)=O)C(C)CC (stereo not given) | 19.8 µM (inactive) | 16.1 µM (inactive) | 8.61 µM (inactive) | 8.59 µM (inactive) | 16.7 µM (inactive) | 16.6 µM | 6.08 µM (inactive) | 1.14 µM (inactive) | 2.74 µM (inactive) | > 42.2 µM (inactive) | 16.4 µM (inactive) | 6.47 µM (inactive) | 14.7 µM (inactive) | 9.82 µM (inactive) | 6.46 µM (inactive) | – | – | – | – | – |
| CCCCNC(=S)Nc1nc(C(=O)NNC(=O)c2ccccc2)cs1 | 15.2 µM (inactive) | 13.3 µM (inactive) | – | – | 19.3 µM (inactive) | 6 µM | – | 40.2 µM (inactive) | 96.6 µM (inactive) | 13.7 µM (inactive) | 11.8 µM (inactive) | 25.9 µM (inactive) | – | – | 27.9 µM (inactive) | 12.5 µM (inactive) | 15.5 µM (inactive) | 16.9 µM (inactive) | – | – |
| COC(=O)C(CC(=O)Nc1ccc(C)cc1)C(=O)C(=O)Nc1ccccc1C(C)C (stereo not given) | > 100 µM (inactive) | 89.7 µM (inactive) | > 100 µM (inactive) | > 100 µM (inactive) | > 100 µM (inactive) | > 100 µM | > 100 µM (inactive) | > 100 µM (inactive) | > 100 µM (inactive) | > 100 µM (inactive) | > 100 µM (inactive) | > 100 µM (inactive) | > 100 µM (inactive) | > 100 µM (inactive) | > 100 µM (inactive) | – | – | – | – | – |
| Clc1cc(Cc2cc(Cl)c(Cl)c3c2OCOC3)c2c(c1Cl)COCO2 | 26.2 µM (inactive) | 70 µM (inactive) | 31.7 µM (inactive) | > 100 µM (inactive) | 41.9 µM (inactive) | > 100 µM | 17.8 µM (inactive) | 16.9 µM (inactive) | 93.1 µM (inactive) | > 100 µM (inactive) | 29.1 µM (inactive) | > 100 µM (inactive) | 38 µM (inactive) | 43.8 µM (inactive) | 30.1 µM (inactive) | – | – | – | – | – |
| Cc1cccc2c1Oc1cc(Cl)ccc1C2NC(=O)CCN1CCN(CCO)CC1 (stereo not given) | 18.3 µM (inactive) | 17.7 µM (inactive) | – | 3.13 µM (inactive) | 11.1 µM (inactive) | 18.4 µM | 13.1 µM (inactive) | 10.7 µM (inactive) | 9.46 µM (inactive) | 28.6 µM (inactive) | 15.1 µM (inactive) | 23.3 µM (inactive) | 22 µM (inactive) | 19.1 µM (inactive) | 17.7 µM (inactive) | 3.69 µM (inactive) | 14.5 µM (inactive) | 15.8 µM (inactive) | 15.2 µM (inactive) | – |
| CCOC(=O)c1ccc(-c2ccc(Cl)cc2)[nH]1 | > 10 µM (inactive) | – | – | – | > 10 µM (inactive) | > 10 µM | > 10 µM (inactive) | > 10 µM (inactive) | > 10 µM (inactive) | > 10 µM (inactive) | > 10 µM (inactive) | > 10 µM (inactive) | > 10 µM (inactive) | > 10 µM (inactive) | > 10 µM (inactive) | – | 0.0161 µM (active) | > 10 µM (inactive) | – | > 10 µM (inactive) |
| COc1ccc2c(c1OC)C[C@@H]1c3c(cc4c(c3-2)OCO4)CCN1C | 15.6 µM (inactive) | 18.6 µM (inactive) | 20.5 µM (inactive) | 29.2 µM (inactive) | 19.9 µM (inactive) | 22.6 µM | 19 µM (inactive) | 12.3 µM (inactive) | 8.63 µM (inactive) | 21.3 µM (inactive) | 26.9 µM (inactive) | 37.1 µM (inactive) | 42.9 µM (inactive) | 32.1 µM (inactive) | 20.3 µM (inactive) | 33.7 µM (inactive) | 17.5 µM (inactive) | – | 16.6 µM (inactive) | 34.4 µM (inactive) |
| COc1ccc(C2c3cc4c(cc3OC(NNc3ccccc3)C2C)OCO4)cc1 (stereo not given) | 2.08 µM (inactive) | 7.06 µM (inactive) | 8.51 µM (inactive) | 26.4 µM (inactive) | 2.77 µM (inactive) | 1.05 µM | 2.36 µM (inactive) | 19.5 µM (inactive) | 5.25 µM (inactive) | 1.82 µM (inactive) | 7.35 µM (inactive) | 20.3 µM (inactive) | 40.7 µM (inactive) | 3.57 µM (inactive) | 4.01 µM (inactive) | 23.2 µM (inactive) | 4.8 µM (inactive) | – | 4.04 µM (inactive) | 16.1 µM (inactive) |
| COc1ccc(-n2c(=O)c3nc[nH]c3n(-c3ccc(OC)cc3)c2=S)cc1 | > 100 µM (inactive) | > 100 µM (inactive) | > 100 µM (inactive) | > 100 µM (inactive) | 17.7 µM (inactive) | > 100 µM | > 100 µM (inactive) | > 100 µM (inactive) | > 100 µM (inactive) | > 100 µM (inactive) | > 100 µM (inactive) | > 100 µM (inactive) | – | > 100 µM (inactive) | > 100 µM (inactive) | > 100 µM (inactive) | > 100 µM (inactive) | > 100 µM (inactive) | > 100 µM (inactive) | – |
| COC(=O)CCC1=C(CC(=O)OC)C(C)(OC)N/C1=N/C(=O)OCc1ccccc1 (stereo not given) | > 100 µM (inactive) | > 100 µM (inactive) | > 100 µM (inactive) | > 100 µM (inactive) | > 100 µM (inactive) | > 100 µM | > 100 µM (inactive) | – | – | > 100 µM (inactive) | > 100 µM (inactive) | > 100 µM (inactive) | > 100 µM (inactive) | > 100 µM (inactive) | > 100 µM (inactive) | > 100 µM (inactive) | > 100 µM (inactive) | > 100 µM (inactive) | > 100 µM (inactive) | – |
| COC(=O)C1(C(=O)OC)N=C(C)OC1C(C)C (stereo not given) | > 100 µM (inactive) | > 100 µM (inactive) | > 100 µM (inactive) | > 100 µM (inactive) | – | > 100 µM | – | > 100 µM (inactive) | 37.5 µM (inactive) | > 100 µM (inactive) | > 100 µM (inactive) | – | > 100 µM (inactive) | > 100 µM (inactive) | > 100 µM (inactive) | – | > 100 µM (inactive) | > 100 µM (inactive) | > 100 µM (inactive) | – |
| CC(C)CCC[C@@H](C)C1CCC2[C@@H]3CC=C4C[C@@H](C(=O)NCCN(C)C)CC[C@]4(C)C3CC[C@@]21C (stereo not given in full) | 44.4 µM (inactive) | 19.5 µM (inactive) | > 100 µM (inactive) | 35.2 µM (inactive) | 41 µM (inactive) | 19 µM | 17.1 µM (inactive) | 5.89 µM (inactive) | 45.8 µM (inactive) | 23.5 µM (inactive) | 30 µM (inactive) | 36 µM (inactive) | 28.6 µM (inactive) | 32.9 µM (inactive) | 23.8 µM (inactive) | – | – | – | – | – |
| CCCC(OCC)(OCC)OCC | > 100 µM (inactive) | > 100 µM (inactive) | > 100 µM (inactive) | > 100 µM (inactive) | > 100 µM (inactive) | > 100 µM | > 100 µM (inactive) | > 100 µM (inactive) | > 100 µM (inactive) | > 100 µM (inactive) | > 100 µM (inactive) | > 100 µM (inactive) | > 100 µM (inactive) | > 100 µM (inactive) | > 100 µM (inactive) | – | – | – | – | – |
| COc1ccc(-c2c(C#N)c(N)n(C3OC(CO)C(O)C(O)C3O)c(=S)c2C#N)cc1 (stereo not given) | – | – | > 100 µM (inactive) | > 100 µM (inactive) | – | > 100 µM | > 100 µM (inactive) | 20.2 µM (inactive) | > 100 µM (inactive) | > 100 µM (inactive) | > 100 µM (inactive) | > 100 µM (inactive) | > 100 µM (inactive) | 97.1 µM (inactive) | > 100 µM (inactive) | > 100 µM (inactive) | > 100 µM (inactive) and 99.1 µM (inactive) | – | – | 21.7 µM (inactive) |
| CC1=Nc2c(ccc3c2C(=O)c2ccccc2C3=O)NC(c2cccc3c2CCC3)C1 (stereo not given) | > 100 µM (inactive) | > 100 µM (inactive) | > 100 µM (inactive) | > 100 µM (inactive) | > 23.1 µM (inactive) | 18.7 µM | > 100 µM (inactive) | > 65 µM (inactive) | 1.58 µM (inactive) | > 100 µM (inactive) | > 100 µM (inactive) | > 100 µM (inactive) | > 100 µM (inactive) | 47.8 µM (inactive) | 0.612 µM (active) | – | – | – | – | – |
| CC(=O)OC(C)(C)CCC(=O)[C@](C)(O)[C@H]1[C@H](O)C[C@@]2(C)[C@@H]3CCc4c(cc(OC5OC(CO)C(O)C(O)C5O)c(O)c4C)C3(C)C(=O)C[C@]12C (stereo not given in full) | > 100 µM (inactive) | > 100 µM (inactive) | > 100 µM (inactive) | > 100 µM (inactive) | > 100 µM (inactive) | > 100 µM | > 100 µM (inactive) | > 100 µM (inactive) | – | > 100 µM (inactive) | > 100 µM (inactive) | > 100 µM (inactive) | > 100 µM (inactive) | > 100 µM (inactive) | > 100 µM (inactive) | > 100 µM (inactive) | > 100 µM (inactive) | > 100 µM (inactive) | > 100 µM (inactive) | – |
| CCOC(=O)c1nc2ccccc2nc1NCc1ccc(OC)cc1 | > 100 µM (inactive) | > 100 µM (inactive) | 23.4 µM (inactive) | > 100 µM (inactive) | 56.9 µM (inactive) | > 100 µM | > 100 µM (inactive) | > 100 µM (inactive) | > 100 µM (inactive) | > 100 µM (inactive) | 64.3 µM (inactive) | > 100 µM (inactive) | – | 82.8 µM (inactive) | > 100 µM (inactive) | 99.8 µM (inactive) | – | 68.1 µM (inactive) | 47.4 µM (inactive) | 40.5 µM (inactive) |
